Reference: the supplement of paper PMC10307832

Experiments:
Assay in all cases: relative viability (nuclei count vs DMSO), 5 days (fraction); higher = more cells survive
NCI-H2087 = system: NCI-H2087
How it was run: (§1)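 After 5 days of treatment, lung cancer cells in 1536-well plates were fixed and stained in a single step (final 0.05% Triton X-100, 1% formaldehyde, 1 ug/ml Hoechst) and their nuclei counted on 4× images. Treatment had been applied by pin tool the day after seeding as one drug alone or as a fixed anchor-drug dose with five library-drug doses (not always all listed) in √10 steps. Relative viability is the nuclei count of treated wells divided by that of vehicle wells, and values are medians of duplicate plates.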

NCI-H2170 = system: NCI-H2170
How it was run: as §1

NCI-H1915 = system: NCI-H1915
How it was run: as §1

NCI-H522 = system: NCI-H522
How it was run: as §1

NCI-H1944 = system: NCI-H1944
How it was run: as §1

H3255 = system: H3255
How it was run: as §1

NCI-H1792 = system: NCI-H1792
How it was run: as §1

NCI-H1793 = system: NCI-H1793
How it was run: as §1

NCI-H358 = system: NCI-H358
How it was run: as §1

SK-MES-1 = system: SK-MES-1
How it was run: as §1

LOU-NH91 = system: LOU-NH91
How it was run: as §1

NCI-H520 = system: NCI-H520
How it was run: as §1

## Cc1csc(=NC2CCCCC2)n1/N=C/c1ccc(O)c(O)c1O [MIM1] + COc1cccc2cc(-c3nc([C@H]4CC[C@H](C(=O)O)CC4)n4ncnc(N)c34)[nH]c12 [OSI-027] (partner 0.5 µM)
NCI-H2087; first compound 0.2 µM
  relative viability: 0.688
NCI-H2087; first compound 0.6325 µM
  relative viability: 0.511
NCI-H2087; first compound 2 µM
  relative viability: 0.696
NCI-H2087; first compound 6.325 µM
  relative viability: 0.547
NCI-H2087; first compound 20 µM
  relative viability: 0.34
NCI-H2170; first compound 0.2 µM
  relative viability: 0.714
NCI-H2170; first compound 0.6325 µM
  relative viability: 0.595
NCI-H2170; first compound 2 µM
  relative viability: 0.637
NCI-H2170; first compound 6.325 µM
  relative viability: 0.461
NCI-H2170; first compound 20 µM
  relative viability: 0.2
NCI-H1915; first compound 0.2 µM
  relative viability: 0.669
NCI-H1915; first compound 0.6325 µM
  relative viability: 0.495
NCI-H1915; first compound 2 µM
  relative viability: 0.609
NCI-H1915; first compound 6.325 µM
  relative viability: 0.49
NCI-H1915; first compound 20 µM
  relative viability: 0.232
NCI-H522; first compound 0.2 µM
  relative viability: 0.761
NCI-H522; first compound 0.6325 µM
  relative viability: 0.578
NCI-H522; first compound 2 µM
  relative viability: 0.717
NCI-H522; first compound 6.325 µM
  relative viability: 0.696
NCI-H522; first compound 20 µM
  relative viability: 0.67
NCI-H1944; first compound 0.2 µM
  relative viability: 0.441
NCI-H1944; first compound 0.6325 µM
  relative viability: 0.44
NCI-H1944; first compound 2 µM
  relative viability: 0.334
NCI-H1944; first compound 6.325 µM
  relative viability: 0.365
NCI-H1944; first compound 20 µM
  relative viability: 0.285
H3255; first compound 0.2 µM
  relative viability: 0.596
H3255; first compound 0.6325 µM
  relative viability: 0.575
H3255; first compound 2 µM
  relative viability: 0.572
H3255; first compound 6.325 µM
  relative viability: 0.519
H3255; first compound 20 µM
  relative viability: 0.313
NCI-H1792; first compound 0.2 µM
  relative viability: 0.737
NCI-H1792; first compound 0.6325 µM
  relative viability: 0.807
NCI-H1792; first compound 2 µM
  relative viability: 0.791
NCI-H1792; first compound 6.325 µM
  relative viability: 0.578
NCI-H1792; first compound 20 µM
  relative viability: 0.596
NCI-H1793; first compound 0.2 µM
  relative viability: 0.273
NCI-H1793; first compound 2 µM
  relative viability: 0.247
NCI-H1793; first compound 6.325 µM
  relative viability: 0.256
NCI-H1793; first compound 20 µM
  relative viability: 0.287
NCI-H358; first compound 0.2 µM
  relative viability: 0.772
NCI-H358; first compound 0.6325 µM
  relative viability: 0.7
NCI-H358; first compound 2 µM
  relative viability: 0.755
NCI-H358; first compound 6.325 µM
  relative viability: 0.447
NCI-H358; first compound 20 µM
  relative viability: 0.128
SK-MES-1; first compound 0.2 µM
  relative viability: 0.656
SK-MES-1; first compound 0.6325 µM
  relative viability: 0.643
SK-MES-1; first compound 2 µM
  relative viability: 0.591
SK-MES-1; first compound 6.325 µM
  relative viability: 0.439
SK-MES-1; first compound 20 µM
  relative viability: 0.15
LOU-NH91; first compound 0.2 µM
  relative viability: 0.721
LOU-NH91; first compound 0.6325 µM
  relative viability: 0.692
LOU-NH91; first compound 2 µM
  relative viability: 0.64
LOU-NH91; first compound 6.325 µM
  relative viability: 0.694
LOU-NH91; first compound 20 µM
  relative viability: 0.635
NCI-H520; first compound 0.2 µM
  relative viability: 0.245
NCI-H520; first compound 0.6325 µM
  relative viability: 0.22
